# According to BindingDB's records for doi:10.1016/j.bmcl.2006.06.087 (Fundp, 2006):
# Molecular target: T1, Fatty-acid amide hydrolase 1 [30-579] (Rattus norvegicus, UniProt P97612)
# T1 construct: 30-579
# T1 sequence (P97612 whole entry): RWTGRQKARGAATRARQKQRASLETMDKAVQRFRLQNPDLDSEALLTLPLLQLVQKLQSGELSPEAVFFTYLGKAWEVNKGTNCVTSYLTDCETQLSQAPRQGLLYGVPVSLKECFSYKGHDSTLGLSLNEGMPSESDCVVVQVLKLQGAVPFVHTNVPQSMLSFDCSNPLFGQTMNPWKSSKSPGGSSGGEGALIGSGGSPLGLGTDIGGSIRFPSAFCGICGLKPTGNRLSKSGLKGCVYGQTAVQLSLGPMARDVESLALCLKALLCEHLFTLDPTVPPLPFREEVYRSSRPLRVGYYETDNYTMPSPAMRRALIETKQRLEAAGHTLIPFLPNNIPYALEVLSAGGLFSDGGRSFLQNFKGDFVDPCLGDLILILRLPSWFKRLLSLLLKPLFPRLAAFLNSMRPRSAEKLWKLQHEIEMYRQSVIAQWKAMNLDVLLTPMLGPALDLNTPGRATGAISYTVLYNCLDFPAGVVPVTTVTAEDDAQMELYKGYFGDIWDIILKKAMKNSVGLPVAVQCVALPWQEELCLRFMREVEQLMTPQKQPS
# Assay: FAAH Inhibition Assay
# Conditions: pH 9; 37 °C
# Description: The effect of the test compounds on the enzymatic hydrolysis of [3H]anandamide was evaluated by using rat brain homogenate preparations. [3H]Ethanolamine produced from [3H]AEA hydrolysis was used to calculate FAAH activity and was measured by scintillation counting of the aqueous phase after extraction of the incubation mixture. Data are expressed as the concentration exerting a half maximal inhibition (IC50).
row,SMILES,IC50
1,"O=C1N(c2ccccc2)C(=S)NC1(c1ccccc1)c1ccccc1 [3,5,5-triphenyl-2-sulfanylideneimidazolidin-4-one]",29.5 µM
2,C#CCCCCCCCCCNC(=O)Oc1cccc(-c2cccc(C(N)=O)c2)c1 [3-(3-carbamoylphenyl)phenyl N-(undec-10-yn-1-yl)carbamate],0.01 µM
3,"CCCCCCN1C(=O)C(c2ccccc2)(c2ccccc2)NC1=S [3-hexyl-5,5-diphenyl-2-sulfanylideneimidazolidin-4-one]",4.47 µM
4,"CCCCCCN1C(=O)NC(c2ccccc2)(c2ccccc2)C1=O [3-hexyl-5,5-diphenylimidazolidine-2,4-dione]",9.55 µM
5,"CCCCCCCCN1C(=O)C(c2ccccc2)(c2ccccc2)NC1=S [3-octyl-5,5-diphenyl-2-sulfanylideneimidazolidin-4-one]",3.02 µM
6,"CCCCCCCCN1C(=O)C(c2ccc(Br)cc2)(c2ccc(Br)cc2)NC1=S [5,5-bis(4-bromophenyl)-3-octyl-2-sulfanylideneimidazolidin-4-one]",589 µM
7,"O=C(CCCCCCc1ccccc1)c1nc2ncccc2o1 [7-phenyl-1-{pyrido[2,3-d][1,3]oxazol-2-yl}heptan-1-one]",0.000316 µM
